Values quoted from earlier work in patent US8343778B2, “Microfluidic microarray assemblies and methods of manufacturing and using” (Simon Fraser University, priority 2004, dated 2013).

Molecular target: T1, Ure2p (Saccharomyces cerevisiae, UniProt P23202)
T1 sequence (P23202 1-354): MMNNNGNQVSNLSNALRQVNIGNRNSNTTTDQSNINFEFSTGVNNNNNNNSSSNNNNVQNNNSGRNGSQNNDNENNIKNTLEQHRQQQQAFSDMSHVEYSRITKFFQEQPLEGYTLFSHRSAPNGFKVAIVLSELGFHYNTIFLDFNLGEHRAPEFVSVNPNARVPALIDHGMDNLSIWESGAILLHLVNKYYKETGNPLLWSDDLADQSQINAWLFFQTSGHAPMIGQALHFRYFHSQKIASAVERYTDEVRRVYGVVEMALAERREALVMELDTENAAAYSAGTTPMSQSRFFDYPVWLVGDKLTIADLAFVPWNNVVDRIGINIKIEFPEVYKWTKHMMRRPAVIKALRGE
Conditions: high-density SMA of 1,3-dioxane-based small molecules exposed to fluorescently labeled Ure2p

Which “binding of fluorescently labeled Ure2p to arrayed small molecule” value does the source give for uretupamine here?
The value was “Ure2p-binding”.
